According to patent US10509046B2, “Detection of indazole synthetic cannabinoids” (Randox Laboratories Limited, priority 2014, dated 2019):
Structures can show the parent of a compound that is named as a salt.

System: AB-PINACA antibody (raised against immunogen 2 of Example 6)
Test: AB-PINACA ELISA, final validated kit with Tracer-2 (Example 10), specificity
Format: binding
Conditions: for % Cross-Reactivity: AB-PINACA N-Pentanoic acid = 100
Description: A microtitre plates was precoated with AB-PINACA antibody (raised against immunogen 2 of Example 6). Pinaca derivative (antigen), if present in the sample competes with the horseradish peroxidase labelled AB-PINACA (enzyme labelled antigen, herein Tracer-2 of Example 8) for a limited number of antibody sites on the microtitre plate. After incubation at room temperature to allow a competition reaction to take place, the microtitre plate was washed to remove excess reagents. The enzyme substrate ([…]) was added. After an incubation period to allow maximum colour development, the colour reaction was stopped by the addition of acid. This produces a colour change from blue to yellow, and the absorbances are read at 450 nm. A standard curve was then constructed to determine the Pinaca derivative's concentration in the sample.
All reagents were left to reach room temperature (+15 to +25° C.) prior to use. In order to minimise edge effects microtitre plate was sealed with an adhesive plate sealer.
The assay was performed in duplicate. The following layout was used for a test plate where each box represents 2 wells.
• a) The following was pipetted into the appropriate wells of the microtitre plate:
• b) The microtitre plate was gently tapped plate from side to side for a few seconds. • c) The microtitre plate was covered with a plate sealer before incubating for 30 minutes at room temperature (+15 to +25° C.) in the dark. • d) The plate was inverted and the liquid was tapped out. • e) The plate was washed 6 times with diluted wash buffer (ensuring all wells were filled), over a 10-15 minute period. After the final wash the liquid was discarded and the plate was tapped onto lint free tissue paper until completely dry. • f) Immediately after washing, 125 μL of the one shot substrate II solution was pipetted into each well using a multichannel pipette. The microtitre plate was gently tapped from side to side and incubated for (20±2 minutes) at room temperature (+15 to +25° C.) in the dark. • g) The colour reaction was stopped by the addition of 100 μL of stop solution per well. A colour change from blue to yellow should be evident. • h) The optical density was measured at 450 nm within 10 minutes of stopping the colour reaction. The use of a 630 nm filter is recommended as the reference wavelength, if available. Standard Curve and Interpretation of Results • a) The mean absorbance of the standards, controls and samples were calculated. • b) The absorbances of standards against log10 (standard concentration) were plotted. • c) The control and sample concentrations were read from the standard curve. • d) To obtain concentrations for urine samples in ng/mL, the results were multiplied by 3 to take into account the dilution factor. • e) To obtain concentrations for whole blood samples in ng/mL, the results were multiplied by 4 to take into account the dilution factor. • f) It is recommended that a 4 parameter curve fit method is used when generating the standard curve. Limits of Detection

Row | SMILES | % Cross-Reactivity [%] | Concentration of compounds that elicit a negative response at the indicated concentration [ng/mL]
1 | CC(C)C(NC(=O)c1nn(CCCC(O)CF)c2ccccc12)C(N)=O (stereo not drawn) | 24.1 | –
2 | CC(C)(C)C(NC(=O)c1nn(CCCCCO)c2ccccc12)C(N)=O (stereo not drawn) | 15.2 | –
3 | CCCCCn1nc(C(=O)NC23CC4CC(CC(O)(C4)C2)C3)c2ccccc21 [3-OH AKB-48] | <1 | –
4 | CCCCCn1cc(C(=O)NC23CC4CC(CC(O)(C4)C2)C3)c2ccccc21 [3-OH SDB-001] | <1 | –
5 | CC(O)CCCn1nc(C(=O)NC(C(N)=O)C(C)C)c2ccccc21 (stereo not drawn) [4-Hydroxypentyl AB-PINACA, 1-(4-hydroxypentyl) AB-Pinaca] | 85.2 | –
6 | CC(C)(C)C(NC(=O)c1nn(CCCCCF)c2ccccc12)C(N)=O (stereo not drawn) [5-Fluoro ADB-PINACA] | 9.8 | –
7 | CC(C)(C)C(NC(=O)c1cn(CCCCCF)c2ccccc12)C(N)=O (stereo not drawn) [5-Fluoro ADBICA] | 4.7 | –
8 | O=C(O)c1cn(CCCCCF)c2ccccc12 [5-fluoro PB-22 3-carboxyindole] | – | 100
9 | O=C(Oc1cccc2cccnc12)c1cn(CCCCCF)c2ccccc12 [5-fluoro PB-22] | – | 100
10 | O=C(O)CCCCn1cc(C(=O)C23CC4CC(CC(C4)C2)C3)c2ccccc21 [AB001 N-Pentanoic Acid] | – | 100
11 | O=C(c1cn(CCCCCO)c2ccccc12)C12CC3CC(CC(C3)C1)C2 [AB-001 N-Pentanol] | <1 | –
12 | CC(C)[C@H](NC(=O)c1nn(CC2CCCCC2)c2ccccc12)C(N)=O [AB-CHMINACA] | 3.8 | –
13 | CC(C)C(NC(=O)c1nn(Cc2ccc(F)cc2)c2ccccc12)C(=O)O (stereo not drawn) [AB-FUBINACA carboxylic acid] | 4.5 | –
14 | CCCCCn1nc(C(=O)NC(C(=O)O)C(C)C)c2ccccc21 (stereo not drawn) [AB-PINACA carboxylic acid] | <1 | –
15 | CC(C)(C)C(NC(=O)c1nn(CCCCC(=O)O)c2ccccc12)C(N)=O (stereo not drawn) [ADB-PINACA pentanoic acid metabolite] | 32.8 | –
16 | CCCCCn1cc(C(=O)NC(C(N)=O)C(C)(C)C)c2ccccc21 (stereo not drawn) [ADBICA] | 0.7 | –
17 | CC(O)CCCn1nc(C(=O)NC23CC4CC(CC(C4)C2)C3)c2ccccc21 (stereo not drawn) [AKB48 N-(4-hydroxypentyl) metabolite] | <1 | –
18 | O=C(NC12CC3CC(CC(C3)C1)C2)c1nn(CCCCCO)c2ccccc12 [AKB48 N-(5-hydroxypentyl) metabolite] | <1 | –
19 | O=C(O)CCCCn1nc(C(=O)NC23CC4CC(CC(C4)C2)C3)c2ccccc21 [AKB48 N-Pentanoic acid metabolite] | <1 | –

Row | SMILES | % Cross-Reactivity [%] | Concentration of compounds that elicit a negative response at the indicated concentration [ng/mL]
20 | O=C(c1ccccc1I)c1cn(CCCCCF)c2ccccc12 [AM-694] | – | 100
21 | O=C(c1cccc2ccccc12)c1cn(CCCCCF)c2cc(O)ccc12 [AM-2201 6-Hydroxyindole] | – | 100
22 | O=C(c1cccc2ccccc12)c1cn(CCCCCF)c2ccccc12 [AM-2201] | – | 100
23 | N#CCCCCn1cc(C(=O)c2cccc3ccccc23)c2ccccc21 [AM-2232] | – | 100
24 | O=C(O)c1cn(CC2CCCCC2)c2ccccc12 [BB-22 3-Carboxyindole metabolite] | – | 100
25 | O=C(Oc1cccc2cccnc12)c1cn(CC2CCCCC2)c2ccccc12 [BB-22] | – | 100
26 | CC1(C)C(C(=O)c2cn(CC3CCOCC3)c3ccccc23)C1(C)C [Hapten A-834735] | – | 100
27 | COc1ccccc1CC(=O)c1cn(CCCC(C)O)c2ccccc12 (stereo not drawn) [JWH 250 N-(4-hydroxypentyl) metabolite] | – | 100
28 | CCCCCn1c(C)c(C(=O)c2cccc3ccccc23)c2ccccc21 [JWH-007] | – | 100
29 | CCCn1c(C)c(C(=O)c2cccc3ccccc23)c2ccccc21 [JWH-015] | – | 100
30 | CCCCCn1cc(C(=O)c2cccc3ccccc23)c2c(O)cccc21 [JWH-018 4-Hydroxyindole] | – | 100
31 | CCCCCn1cc(C(=O)c2cccc3ccccc23)c2cc(O)ccc21 [JWH-018 5-Hydroxyindole] | – | 100
32 | CCCCCn1cc(C(=O)c2cccc3ccccc23)c2ccc(O)cc21 [JWH-018 6-Hydroxyindole] | – | 100
33 | O=C(c1cccc2ccccc12)c1cn(CCCCCO)c2ccccc12 [JWH-018 N-(5-Hydroxypentyl)] | – | 100
34 | O=C(O)CCCCn1cc(C(=O)c2cccc3ccccc23)c2ccccc21 [JWH-018 N-Pentanoic acid] | – | 100
35 | CCCCCn1cc(C(=O)c2cccc3ccccc23)c2ccccc21 [JWH-018] | – | 100
36 | CCCCCCn1cc(C(=O)c2cccc3ccccc23)c2ccccc21 [JWH-019] | – | 100
37 | CCCCn1cc(C(=O)c2cccc3ccccc23)c2c(O)cccc21 [JWH-073 4-Hydroxyindole] | – | 100
38 | CCCCn1cc(C(=O)c2cccc3ccccc23)c2cc(O)ccc21 [JWH-073 5-Hydroxyindole] | – | 100

Row | SMILES | % Cross-Reactivity [%] | Concentration of compounds that elicit a negative response at the indicated concentration [ng/mL]
39 | O=C(O)CCCn1cc(C(=O)c2cccc3ccccc23)c2ccccc21 [JWH-073 N-Butanoic acid] | – | 100
40 | O=C(c1cccc2ccccc12)c1cn(CCCCO)c2ccccc12 [JWH-073 N-Butanol] | – | 100
41 | CCCCn1cc(C(=O)c2cccc3ccccc23)c2ccccc21 [JWH-073] | – | 100
42 | CCCCCn1cc(C(=O)c2ccc(OC)c3ccccc23)c2ccccc21 [JWH-081] | – | 100
43 | O=C(c1cccc2ccccc12)c1cn(CCN2CCOCC2)c2ccccc12 [JWH-200] | – | 100
44 | CCCCCn1cc(C(=O)Cc2ccccc2Cl)c2ccccc21 [JWH-203] | – | 100
45 | CCCCCn1cc(C(=O)c2ccc(CC)c3ccccc23)c2ccccc21 [JWH-210] | – | 100
46 | COc1ccccc1CC(=O)c1cn(CCCCCC(=O)O)c2ccccc12 [JWH-250 N-(5-Carboxypentyl)] | – | 100
47 | COc1ccccc1CC(=O)c1cn(CCCCCO)c2ccccc12 [JWH-250 N-(5-Hydroxypentyl)] | – | 100
48 | CCCCCn1cc(C(=O)c2ccc(Cl)c3ccccc23)c2ccccc21 [JWH-398] | – | 100
49 | CCCCCn1nc(C(=O)Nc2cccc3ccccc23)c2ccccc21 [MN-18] | <1 | –
50 | COc1cccc2c(C(=O)N[C@@H]3C(C)(C)[C@@H]4CC[C@@]3(C)C4)cn(CCN3CCOCC3)c12 [MN-25] | <1 | –
51 | CN(C)C(=N)N=C(N)N [Metformin HCl] | – | 10000
52 | CCCCCn1cc(C(=O)Nc2cccc3ccccc23)c2ccccc21 [NNEI] | – | 100
53 | CCCCCn1cc(C(=O)O)c2ccccc21 [PB-22 3-Carboxyindole metabolite] | – | 100
54 | O=C(Oc1cccc2cccnc12)c1cn(CCCCCO)c2ccccc12 [PB-22 N-(5-hydroxypentyl) metabolite] | <1 | –
55 | O=C(O)CCCCn1cc(C(=O)Oc2cccc3cccnc23)c2ccccc21 [PB-22 N-Pentanoic acid] | <1 | –
56 | CCCCCn1cc(C(=O)Oc2cccc3cccnc23)c2ccccc21 [PB-22] | – | 100
57 | CC(C)NCC(O)COc1cccc2ccccc12 (stereo not drawn) [Propranolol HCL] | – | 10000
